Test results from article PMC5293585, “Characteristics of a water-forming NADH oxidase from Methanobrevibacter smithii, an archaeon in the human gut” (Bioscience Reports, 2016).

What was measured:
[1] = molecular target: T1, NOX-ms (Methanobrevibacter smithii, UniProt A5UJ73); experiment: absorption spectrum of holo, apo and reconstituted enzyme; activity restored by FAD; assay type: binding; settings: apoenzyme reconstituted with equimolar FAD, room temperature, 5 min, dialysed
T1 construct: gene Msm_0046; N-terminal His-tag (pET28a, EcoRI/XhoI), tag kept; E. coli BL21(DE3); FAD-containing holoenzyme (apo form for the FAD row)
T1 sequence (A5UJ73 1-444): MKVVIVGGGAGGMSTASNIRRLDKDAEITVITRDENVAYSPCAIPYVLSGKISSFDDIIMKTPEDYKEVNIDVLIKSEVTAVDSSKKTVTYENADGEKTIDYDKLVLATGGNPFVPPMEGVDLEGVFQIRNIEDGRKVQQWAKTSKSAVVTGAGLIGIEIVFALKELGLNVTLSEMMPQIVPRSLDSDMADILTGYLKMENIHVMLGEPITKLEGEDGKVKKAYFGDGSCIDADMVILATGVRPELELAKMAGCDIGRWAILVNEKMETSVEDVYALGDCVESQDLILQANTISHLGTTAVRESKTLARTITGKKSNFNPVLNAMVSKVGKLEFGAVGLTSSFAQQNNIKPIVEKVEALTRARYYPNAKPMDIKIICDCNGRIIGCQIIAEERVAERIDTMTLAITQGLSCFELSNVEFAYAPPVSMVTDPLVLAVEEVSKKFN

[2] = molecular target: T1, NOX-ms; experiment: NADH oxidation at A340, Michaelis-Menten fit; assay type: biochemical; settings: apparent; O2 as co-substrate (aerobic); NADH 0.02-0.6 mM; optimal conditions (about 37°C, 50 mM sodium phosphate)
[3] = molecular target: T2, NOX-ms (Methanobrevibacter smithii, UniProt A5UJ73, C230A); experiment: NADH oxidation at A340, relative activity; assay type: biochemical; settings: apparent; O2 as co-substrate (aerobic); NADH 0.02-0.6 mM; optimal conditions (about 37°C, 50 mM sodium phosphate)
T2 construct: gene Msm_0046; N-terminal His-tag (pET28a, EcoRI/XhoI), tag kept; E. coli BL21(DE3); FAD-containing holoenzyme (apo form for the FAD row)
T2 sequence (A5UJ73 entry or part of it C230A): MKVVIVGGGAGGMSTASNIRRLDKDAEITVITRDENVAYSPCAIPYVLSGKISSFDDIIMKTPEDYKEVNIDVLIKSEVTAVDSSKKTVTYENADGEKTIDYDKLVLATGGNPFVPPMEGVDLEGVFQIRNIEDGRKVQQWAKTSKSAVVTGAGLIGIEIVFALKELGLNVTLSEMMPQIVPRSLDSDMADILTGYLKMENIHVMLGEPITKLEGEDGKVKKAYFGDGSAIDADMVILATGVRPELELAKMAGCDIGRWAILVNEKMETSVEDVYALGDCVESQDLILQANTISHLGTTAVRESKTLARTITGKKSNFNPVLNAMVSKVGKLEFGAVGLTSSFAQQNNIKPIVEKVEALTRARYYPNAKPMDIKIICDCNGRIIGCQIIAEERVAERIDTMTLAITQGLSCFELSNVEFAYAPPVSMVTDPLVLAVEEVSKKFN

| Km [2] | Compound | absorption spectrum of holo, apo and reconstituted enzyme; activity restored by [1] | NADH oxidation at A340, relative activity [3] |
| --- | --- | --- | --- |
| – | Cc1cc2nc3c(=O)[nH]c(=O)nc-3n(C[C@H](O)[C@H](O)[C@H](O)COP(=O)(O)OP(=O)(O)OC[C@H]3O[C@@H](n4cnc5c(N)ncnc54)[C@H](O)[C@@H]3O)c2cc1C [FAD] | The holoenzyme can be reconstituted by incubating equimolar concentrations of apomonomers and FAD | – |
| 47.8 to 54.6 µM | NC(=O)C1=CN([C@@H]2O[C@H](COP(=O)(O)OP(=O)(O)OC[C@H]3O[C@@H](n4cnc5c(N)ncnc54)[C@H](O)[C@@H]3O)[C@@H](O)[C@H]2O)C=CC1 [NADH] | – | the C230A mutant had similar NOX activity to that of the wild-type protein |
